# Measured values reported in patent publication US20210300924A1, “5-[6-[[3-(4,5,6,7-TETRAHYDROPYRAZOLO[4,3-C]PYRIDIN-1-YL)AZETIDIN-1-YL]METHYL]MORPHOLIN-4-YL]QUINOLINE-8-CARBONITRILE DERIVATIVES AND SIMILAR COMPOUNDS AS TLR7-9 ANTAGONISTS FOR TREATING SYSTEMIC LUPUS ERYTHEMATOSUS” (Hoffmann-La Roche Inc., priority 2018, published 2021).
# Marks after values point to notes of the source that are not given here.
# System: not listed separately
# Assay: Human microsome stability assay
# Assay type: in vitro ADME
# Conditions: 1 μM test compound, 0.5 mg/mL liver microsomal protein, 37° C., up to 30 minutes; 6.2 = detection limit
# Procedure: Human Microsome Stability Assay
# The human microsomal stability assay is used for early assessment of metabolic stability of a test compound in human liver microsomes.
# Human liver microsomes (Cat. NO.: 452117, Corning, USA; Cat. NO.:H2610, Xenotech, USA) were preincubated with test compound for 10 minutes at 37° C. in 100 mM potassium phosphate buffer, pH 7.4. The reactions were initiated by adding NADPH regenerating system. The final incubation mixtures contained 1 μM test compound, 0.5 mg/mL liver microsomal protein, 1 mM MgCl2, 1 mM NADP, 1 unit/mL isocitric dehydrogenase and 6 mM isocitric acid in 100 mM potassium phosphate buffer, pH 7.4. After incubation times of 0, 3, 6, 9, 15 and 30 minutes at 37° C., 300 μL of cold acetonitrile (including internal standard) was added to 100 μL incubation mixture to terminate the reaction. Following precipitation and centrifugation, the amount of compound remaining in the samples were determined by LC-MS/MS. Controls of no NADPH regenerating system at zero and 30 minutes were also prepared and analyzed.
row,Clearance of Human microsome,SMILES
1,6.5 mL/min/kg,"Cc1c2c(nn1C1CN(C[C@H]3CN(c4ccc(C#N)c5ncccc45)C[C@@H](C)O3)C1)CNCC2 [Example 43, 5-[(2R,6S)-2-methyl-6-[[3-(3-methyl-4,5,6,7-tetrahydropyrazolo[3,4-c]pyridin-2-yl)azetidin-1-yl]methyl]morpholin-4-yl]quinoline-8-carbonitrile]"
2,6.2 mL/min/kg,"C[C@@H]1CN(c2ccc(C#N)c3ncccc23)C[C@H](CN2CC(n3cc4c(n3)CCNC4)C2)O1 [Example 2, 5-[(2R,6S)-2-methyl-6-[[3-(4,5,6,7-tetrahydropyrazolo[4,3-c]pyridin-2-yl)azetidin-1-yl]methyl]morpholin-4-yl]quinoline-8-carbonitrile]"
3,6.2 mL/min/kg,"C[C@@H]1CN(c2ccc(C#N)c3ncccc23)C[C@H](CN2CC(n3cc4c(n3)C[C@H](C)NC4)C2)O1 [Example 19, 5-[(2R,6S)-2-methyl-6-[[3-[(6S)-6-methyl-4,5,6,7-tetrahydropyrazolo[4,3-c]pyridin-2-yl]azetidin-1-yl]methyl]morpholin-4-yl]quinoline-8-carbonitrile]"
4,6.2 mL/min/kg,"C[C@@H]1CN(c2ccc(C#N)c3ncccc23)C[C@H](CN2CC(n3ncc4c3CCN[C@H]4C)C2)O1 [Example 22, 5-[(2R,6S)-2-methyl-6-[[3-[(4S)-4-methyl-4,5,6,7-tetrahydropyrazolo[4,3-c]pyridin-1-yl]azetidin-1-yl]methyl]morpholin-4-yl]quinoline-8-carbonitrile]"
5,6.2* mL/min/kg,"C[C@@H]1CN(c2ccc(C#N)c3ncccc23)C[C@H](CN2CC(n3ncc4c3CCNC4)C2)O1 [Example 1, 5-[(2R,6S)-2-methyl-6-[[3-(4,5,6,7-tetrahydropyrazolo[4,3-c]pyridin-1-yl)azetidin-1-yl]methyl]morpholin-4-yl]quinoline-8-carbonitrile]"
6,7.0 mL/min/kg,"C[C@@H]1CN(c2ccc(C#N)c3ncccc23)C[C@H](CN2CC(n3ncc4c3C[C@H](C)NC4)C2)O1 [Example 18, 5-[(2R,6S)-2-methyl-6-[[3-[(6S)-6-methyl-4,5,6,7-tetrahydropyrazolo[4,3-c]pyridin-1-yl]azetidin-1-yl]methyl]morpholin-4-yl]quinoline-8-carbonitrile]"
7,6.2 mL/min/kg,"C[C@@H]1CN(c2ccc(C#N)c3ncccc23)C[C@H](CN2CCC(n3cc4c(n3)CCNC4)CC2)O1 [Example 36, 5-[(2R,6S)-2-methyl-6-[[4-(4,5,6,7-tetrahydropyrazolo[4,3-c]pyridin-2-yl)-1-piperidyl]methyl]morpholin-4-yl]quinoline-8-carbonitrile]"
8,7.1 mL/min/kg,"Cc1nn(C2CN(C[C@H]3CN(c4ccc(C#N)c5ncccc45)C[C@@H](C)O3)C2)c2c1CCNC2 [Example 42, 5-[(2R,6S)-2-methyl-6-[[3-(3-methyl-4,5,6,7-tetrahydropyrazolo[3,4-c]pyridin-1-yl)azetidin-1-yl]methyl]morpholin-4-yl]quinoline-8-carbonitrile]"

# Molecular target: T1, TLR9 (Homo sapiens, UniProt Q9NR96)
# T1 sequence (Q9NR96 26-1032): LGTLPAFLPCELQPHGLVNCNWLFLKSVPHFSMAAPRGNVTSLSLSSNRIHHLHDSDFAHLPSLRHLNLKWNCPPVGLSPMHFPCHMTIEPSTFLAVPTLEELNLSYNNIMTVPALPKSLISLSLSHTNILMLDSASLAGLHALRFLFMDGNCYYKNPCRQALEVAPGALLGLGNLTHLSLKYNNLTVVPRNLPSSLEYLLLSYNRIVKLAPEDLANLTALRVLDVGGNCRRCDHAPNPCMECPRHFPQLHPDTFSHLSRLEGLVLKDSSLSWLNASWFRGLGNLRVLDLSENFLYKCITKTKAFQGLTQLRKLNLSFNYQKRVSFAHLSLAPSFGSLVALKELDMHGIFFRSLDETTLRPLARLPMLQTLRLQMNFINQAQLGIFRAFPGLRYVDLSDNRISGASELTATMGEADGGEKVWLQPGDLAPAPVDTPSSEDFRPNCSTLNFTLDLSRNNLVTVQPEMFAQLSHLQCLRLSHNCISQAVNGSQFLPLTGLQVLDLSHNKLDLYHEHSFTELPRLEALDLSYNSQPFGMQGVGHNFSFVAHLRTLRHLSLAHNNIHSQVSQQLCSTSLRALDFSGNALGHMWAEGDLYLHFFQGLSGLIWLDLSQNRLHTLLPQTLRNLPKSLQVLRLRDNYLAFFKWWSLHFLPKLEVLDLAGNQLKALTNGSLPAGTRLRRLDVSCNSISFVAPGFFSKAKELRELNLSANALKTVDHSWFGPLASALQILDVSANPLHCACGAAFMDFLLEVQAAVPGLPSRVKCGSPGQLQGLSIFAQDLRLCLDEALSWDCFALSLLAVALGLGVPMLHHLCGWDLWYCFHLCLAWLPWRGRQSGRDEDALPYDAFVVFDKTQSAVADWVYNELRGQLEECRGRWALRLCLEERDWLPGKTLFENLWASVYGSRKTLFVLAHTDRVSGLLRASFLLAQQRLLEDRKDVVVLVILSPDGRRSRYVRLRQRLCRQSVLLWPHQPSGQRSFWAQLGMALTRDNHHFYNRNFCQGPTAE
# Assay: Human PBMC cell-based assay
# Parameters: endogenous in cells; host or cells: human PBMC from healthy donor whole blood
# Conditions: CpG ODN 2216 stimulation, overnight, cytokine readout, read-out: hPBMC/TLR9 IC50
# Excerpt: Human PBMC Cell-Based Assay
# Unlike the HEK reporter cell lines, human peripheral blood mononuclear cell (PBMC) represents primary human immune cells in blood mainly consisting of lymphocytes, monocytes, and dendritic cells. These cells express TLR7, TLR8, or TLR9, and therefore are natural responders to respective ligand stimulation. Upon activation of these TLRs, PBMCs secrete similar cytokines and chemokines in vitro and in vivo, and therefore the in vitro potency of a TLR7/8/9 antagonist in human PBMC is readily translatable to its pharmacodynamics response in vivo.
# Human peripheral blood mononuclear cells (PBMC) were isolated from freshly-drawn lithium-heparinized (Lithium Heparin Plus blood Collection tube, BD Vacutainer®) healthy donor whole blood by density gradient (Ficoll-Paque™ PLUS, GE Healthcare life Sciences). Briefly, […] was diluted with 25 mL PBS (without Ca^2+, Mg^2+) in a 50 mL conical tube with porous barrier (Leucosep tube, Greiner bio-one), where 15.5 mL Ficoll-Paque was under laid after spinning. Tubes were centrifuged for 20 minutes at 800×g (1946 rpm) with the brake in the off position, and PBMC were collected from the buffy coat. Cells were then washed twice in PBS, and red blood cells were lysed by suspension in 2 mL (Red Blood Cell Lysis Buffer, Alfa Aesar) for 5-10 minutes at room temperature. After a final wash in PBS, PBMC were resuspended at a final concentration of 2×10^6 cells/mL in RPMI-1640 media with GlutaMAX™ (Gibco) supplemented with 10% Fetal Bovine Serum (Sigma) and plated at 150 μL/well (3×10^5 cells/well) in tissue culture treated round bottom 96-well plates (Corning Incorporated). Antagonist compounds (compounds of this invention) solubilized and serial diluted in 100% DMSO were added in duplicate to cells to yield a final concentration of 1% DMSO (v/v). PBMC were incubated with antagonist compounds for 30 minutes at 37° C., 5% CO2 before adding various TLR agonist reagents in 48 μL complete media per well as follows (final concentrations indicated): CpG ODN 2216 (InvivoGen) at […] for TLR9, ORN 06/LyoVec (InvivoGen) at 1 μg/mL for TLR8 and R848 (InvivoGen) at 1 μg/mL for TLR7 and TLR8. PBMC were incubated overnight at 37° C. with 5% CO2. Cell culture supernatants were collected, and levels of various human cytokines were assessed by Luminex assay (ProcartaPlex™ Multiplex Immunoassay, Invitrogen) or ELISA procedure according to the manufacturer's recommended protocol (eBioscience, ThermoFisher Scientific). Viability of the cells was also checked with Cell Viability Assay (CellTiter Glo® Luminescent Cell Viability Assay, Promega).
row,IC50 [µM],SMILES
1,0.092,"Cc1nn(C2CN(C[C@H]3CN(c4ccc(C#N)c5ncccc45)C[C@@H](C)O3)C2)c2c1CNCC2 [Example 12, 5-[(2R,6S)-2-methyl-6-[[3-(3-methyl-4,5,6,7-tetrahydropyrazolo[4,3-c]pyridin-1-yl)azetidin-1-yl]methyl]morpholin-4-yl]quinoline-8-carbonitrile]"
2,0.119,"Cc1c2c(nn1C1CN(C[C@H]3CN(c4ccc(C#N)c5ncccc45)C[C@@H](C)O3)C1)CCNC2 [Example 13, 5-[(2R,6S)-2-methyl-6-[[3-(3-methyl-4,5,6,7-tetrahydropyrazolo[4,3-c]pyridin-2-yl)azetidin-1-yl]methyl]morpholin-4-yl]quinoline-8-carbonitrile]"
3,0.072,"C[C@@H]1CN(c2ccc(C#N)c3ncccc23)C[C@H](CN2CC(n3cc4c(n3)[C@@H](C)NCC4)C2)O1 (single isomer, unassigned) [Example 33]"
4,0.118,"C[C@@H]1CN(c2ccc(C#N)c3ncccc23)C[C@H](CN2CC(n3ncc4c3CNCC4)C2)O1 [Example 3, 5-[(2R,6S)-2-methyl-6-[[3-(4,5,6,7-tetrahydropyrazolo[3,4-c]pyridin-1-yl)azetidin-1-yl]methyl]morpholin-4-yl]quinoline-8-carbonitrile]"
5,0.081,"C[C@@H]1CN(c2ccc(C#N)c3ncccc23)C[C@H](CN2CC(n3ncc4c3CN[C@@H](C)C4)C2)O1 (single isomer, unassigned) [Example 27]"
6,0.346,"C[C@@H]1CN(c2ccc(C#N)c3ncccc23)C[C@H](CN2CC(n3cc4c(n3)[C@H](C)CNC4)C2)O1 (single isomer, unassigned) [Example 25]"
7,0.145,"C[C@@H]1CN(c2ccc(C#N)c3ncccc23)C[C@H](CN2CC(n3ncc4c3[C@H](C)NCC4)C2)O1 (single isomer, unassigned) [Example 32]"
8,0.235,"C[C@@H]1CN(c2ccc(C#N)c3ncccc23)C[C@H](CN2CC(n3ncc4c3[C@@H](C)NCC4)C2)O1 (single isomer, unassigned) [Example 31]"
9,0.11,"Cc1c2c(nn1C1CN(C[C@H]3CN(c4ccc(C#N)c5ncccc45)C[C@@H](C)O3)C1)CCN(C)C2 [Example 15, 5-[(2S,6R)-2-[[3-(3,5-dimethyl-6,7-dihydro-4H-pyrazolo[4,3-c]pyridin-2-yl)azetidin-1-yl]methyl]-6-methyl-morpholin-4-yl]quinoline-8-carbonitrile]"
10,0.195,"CCN1CCc2cn(C3CN(C[C@H]4CN(c5ccc(C#N)c6ncccc56)C[C@@H](C)O4)C3)nc2C1 [Example 7, 5-[(2S,6R)-2-[[3-(6-ethyl-5,7-dihydro-4H-pyrazolo[3,4-c]pyridin-2-yl)azetidin-1-yl]methyl]-6-methyl-morpholin-4-yl]quinoline-8-carbonitrile]"
